Measured values as given in US10555987B2, “GHRH agonists for the treatment of ischemic disorders” (UNIVERSITY OF MIAMI, priority 2012, dated 2020).
Non-standard residues stand in square brackets, D forms with d. Residues, ends and D or L forms follow the SMILES beside them. *: point of attachment. Phe(F5) = N[C@@H](Cc1c(F)c(F)c(F)c(F)c1F)C(=O)O; Desaminotyrosyl = O=C(CCc1ccc(O)cc1)*; NMeY = CN[C@@H](Cc1ccc(O)cc1)C(=O)O; Agmatine = N=C(N)NCCCCN*; Nle = CCCC[C@H](N)C(=O)O; Orn = NCCC[C@H](N)C(=O)O; Abu = CC[C@H](N)C(=O)O; GABA = NCCCC(=O)O

What was measured:
[1] = molecular target: T1, GHRH receptor (Homo sapiens, UniProt Q02643); test: GHRH receptor binding, competition with 125I-labeled JV-1-42, human pituitary membrane homogenates (Table 7); parameters: Normal human pituitaries were purchased from the National Hormone and Peptide Program; tissue National Hormone and Peptide Program (A.F. Parlow, Harbor-UCLA Medical Center, Torrance, Calif.); host or cells: normal human pituitary, membrane fraction; details: JI-38 = 1, Table 7
T1 sequence (Q02643 23-423): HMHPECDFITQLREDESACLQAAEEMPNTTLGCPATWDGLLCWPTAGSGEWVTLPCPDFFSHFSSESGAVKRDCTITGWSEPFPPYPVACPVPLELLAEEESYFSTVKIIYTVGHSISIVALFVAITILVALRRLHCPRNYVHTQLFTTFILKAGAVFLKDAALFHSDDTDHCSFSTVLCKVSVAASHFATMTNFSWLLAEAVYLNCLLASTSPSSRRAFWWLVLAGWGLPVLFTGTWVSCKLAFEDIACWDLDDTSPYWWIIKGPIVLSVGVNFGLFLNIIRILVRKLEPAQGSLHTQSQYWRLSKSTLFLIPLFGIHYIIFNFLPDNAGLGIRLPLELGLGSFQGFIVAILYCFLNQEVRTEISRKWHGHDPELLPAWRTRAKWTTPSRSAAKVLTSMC
From the text: Normal human pituitaries were purchased from the National Hormone and Peptide Program (A.F. Parlow, Los Angeles, County Harbor-UCLA Medical Center, Torrance, Calif.).

[2] = molecular target: T1, GHRH receptor; test: Receptor binding in vitro, 125I-labeled [His1,Nle27]-hGHRH(1-32)NH2, membrane receptors of human anterior pituitary cells (Table 14); details: for Relative affinity (Binding potency) compared to JI-38: JI-38 = 1; for GHRH receptor binding affinity (in words): compared to JI-38; for Relative affinity (Binding potency) compared to hGHRH(1-29): hGHRH(1-29)NH2 = 1
From the text: Normal human pituitary was purchased from the National Hormone and Peptide Program (UCLA Medical Center, Torrance, Calif.).

[3] = test system: myocardial infarction (Fischer 344 rats); test: Echocardiography in rat MI model, treatment from 2 hours post-surgery (Example 14); assay type: in vivo; details: echocardiographic measurements at day 2 post-MI
Procedure: MI was induced in female 6-month-old Fischer 344 rats by permanent ligation of left ventricular (LV) anterior descending coronary artery. Animals were randomly assigned to receive placebo or one of the following GHRH agonists (MR-356, MR-361, MR-367, MR-403, MR-404, MR-409 and MR-502) starting 2 hours post-surgery. All treatment (50 μg/kg) was given subcutaneously twice daily for 4 weeks. The Institutional Animal Care and Use committee of the University of Miami approved all protocols and experimental procedures.
Longitudinal evaluation of LV remodeling was obtained by echocardiographic measurements between baseline and 4 weeks following MI. Echocardiographic assessments were performed in anesthetized rats (1-2% isoflurane inhalation) using a Vevo-770 echocardiogram (Visual Sonics Inc., Toronto, Ontario, Canada) equipped with 25 MHz transducer. Cardiac dimensions were recorded from M-mode images using averaged measurements from 3 to 5 consecutive cardiac cycles. LV end-diastolic and end-systolic volumes and ejection fraction (EF) were calculated from bi-dimensional long-axis parasternal views taken through the infarcted area. All images were analyzed using Vevo 770 3.0.0 software (Visual Sonics).

Q: `CCCC[C@H](NC(=O)[C@@H](NC(=O)[C@H](CC(=O)O)NC(=O)[C@H](CCC(N)=O)NC(=O)[C@H](CC(C)C)NC(=O)[C@H](CC(C)C)NC(=O)[C@H](CCCN)NC(=O)[C@H](CCCNC(=N)N)NC(=O)[C@H](C)NC(=O)[C@H](CO)NC(=O)[C@H](CC(C)C)NC(=O)[C@H](CCC(N)=O)NC(=O)[C@H](CC)NC(=O)[C@H](CC(C)C)NC(=O)[C@@H](NC(=O)[C@H](CCCN)NC(=O)[C@H](CCCNC(=N)N)NC(=O)[C@H](Cc1ccc(O)cc1)NC(=O)[C@H](CO)NC(=O)[C@H](CCC(N)=O)NC(=O)[C@@H](NC(=O)[C@H](Cc1ccccc1)NC(=O)[C@@H](NC(=O)[C@H](C)NC(=O)[C@H](CC(=O)O)NC(=O)[C@@H](C)NC(=O)[C@H](Cc1ccc(O)cc1)NC)[C@@H](C)CC)[C@@H](C)O)C(C)C)[C@@H](C)CC)C(=O)N[C@@H](CC(=O)O)C(=O)NCCCCNC(=N)N` [Peptide P-20361, [N—Me-Tyr^1, D-Ala^2, Gln^8, Orn^12, Abu^15, Orn^21, Nle^27, Asp^28, Agm^29] hGHRH (1-29)NH2] (H-[NMeY][dA]DAIFTQSYR[Orn]VL[Abu]QLSAR[Orn]LLQDI[Nle]D-Agmatine) was tested. Which “Relative affinity (Binding potency) vs JI-38” value (“Relative affinity … vs JI-38” below) [1] did it give?
A: Its value is 5.30.

Q: And the “Relative affinity (Binding potency) compared to JI-38” value (“Relative affinity … to JI-38” below) [2]?
A: Its value is 2.30.

Q: What about the “GHRH receptor binding affinity (in words)” value [2] of the same compound?
A: Its value is “improved receptor binding affinity”.

Q: What about the “Relative affinity (Binding potency) compared to hGHRH(1-29)” value (from here on “Relative affinity … to hGHRH(1-29)”) [2] of the same compound?
A: The value was 6.42.

Q: What about the “EF at day 2 post-MI” value [3] of the same compound?
A: Its value is “slightly better preserved”.

Q: What does the source list for `CCCC[C@H](NC(=O)[C@@H](NC(=O)[C@H](CC(=O)O)NC(=O)[C@H](CCC(N)=O)NC(=O)[C@H](CC(C)C)NC(=O)[C@H](CC(C)C)NC(=O)[C@H](CCCN)NC(=O)[C@H](CCCNC(=N)N)NC(=O)[C@H](C)NC(=O)[C@H](CO)NC(=O)[C@H](CC(C)C)NC(=O)[C@H](CCC(N)=O)NC(=O)[C@H](CC)NC(=O)[C@H](CC(C)C)NC(=O)[C@@H](NC(=O)[C@H](CCCN)NC(=O)[C@H](CCCNC(=N)N)NC(=O)[C@H](Cc1ccc(O)cc1)NC(=O)[C@H](CO)NC(=O)[C@H](CC(N)=O)NC(=O)[C@@H](NC(=O)[C@H](Cc1ccccc1)NC(=O)[C@@H](NC(=O)[C@H](C)NC(=O)[C@H](CC(=O)O)NC(=O)[C@@H](C)NC(=O)[C@H](Cc1ccc(O)cc1)NC)[C@@H](C)CC)[C@@H](C)O)C(C)C)[C@@H](C)CC)C(=O)N[C@@H](CC(=O)O)C(=O)NCCCCNC(=N)N` [Peptide P-20367, [N—Me-Tyr^1, D-Ala^2, Orn^12, Abu^15, Orn^21, Nle^27, Asp^28, Agm^29]hGHRH(1-29)NH2] (H-[NMeY][dA]DAIFTNSYR[Orn]VL[Abu]QLSAR[Orn]LLQDI[Nle]D-Agmatine)?
A: Relative affinity (Binding potency) vs JI-38 [1]: 2.56; Relative affinity (Binding potency) compared to JI-38 [2]: 2.51; GHRH receptor binding affinity (in words) [2]: improved receptor binding affinity; Relative affinity (Binding potency) compared to hGHRH(1-29) [2]: 7.01

Q: `CCCC[C@H](NC(=O)[C@@H](NC(=O)[C@H](CC(=O)O)NC(=O)[C@H](CCC(N)=O)NC(=O)[C@H](CC(C)C)NC(=O)[C@H](CC(C)C)NC(=O)[C@H](CCCN)NC(=O)[C@H](CCCNC(=N)N)NC(=O)[C@H](C)NC(=O)[C@H](CO)NC(=O)[C@H](CC(C)C)NC(=O)[C@H](CCC(N)=O)NC(=O)[C@H](CC)NC(=O)[C@H](CC(C)C)NC(=O)[C@@H](NC(=O)[C@H](CCCN)NC(=O)[C@H](CCCNC(=N)N)NC(=O)[C@H](Cc1ccc(O)cc1)NC(=O)[C@H](CO)NC(=O)[C@H](CC(N)=O)NC(=O)[C@@H](NC(=O)[C@H](Cc1c(F)c(F)c(F)c(F)c1F)NC(=O)[C@@H](NC(=O)[C@H](C)NC(=O)[C@H](CC(=O)O)NC(=O)[C@@H](C)NC(=O)CCc1ccc(O)cc1)[C@@H](C)CC)[C@@H](C)O)C(C)C)[C@@H](C)CC)C(=O)N[C@@H](CO)C(=O)N[C@@H](CCCNC(=N)N)C(=O)NCCCC(N)=O` [Peptide P-25502, [Dat^1, D-Ala^2, Fpa5^6, Orn^12, Abu^15, Orn^21, Nle^27, Gab^30]hGHRH(1-30)NH2] (Desaminotyrosyl-[dA]DAI[Phe(F5)]TNSYR[Orn]VL[Abu]QLSAR[Orn]LLQDI[Nle]SR[GABA]-NH2) was tested. Which “Relative affinity … vs JI-38” value [1] did it give?
A: Its value is 13.18.

Q: What about the “Relative affinity … to JI-38” value [2] of the same compound?
A: The value was 1.27.

Q: And the “Relative affinity … to hGHRH(1-29)” value [2]?
A: The value was 3.54.

Q: What does the source list for `CCCC[C@H](NC(=O)[C@@H](NC(=O)[C@H](CC(=O)O)NC(=O)[C@H](CCC(N)=O)NC(=O)[C@H](CC(C)C)NC(=O)[C@H](CC(C)C)NC(=O)[C@H](CCCN)NC(=O)[C@H](CCCNC(=N)N)NC(=O)[C@H](C)NC(=O)[C@H](CO)NC(=O)[C@H](CC(C)C)NC(=O)[C@H](CCC(N)=O)NC(=O)[C@H](CC)NC(=O)[C@H](CC(C)C)NC(=O)[C@@H](NC(=O)[C@H](CCCN)NC(=O)[C@H](CCCNC(=N)N)NC(=O)[C@H](Cc1ccc(O)cc1)NC(=O)[C@H](CO)NC(=O)[C@H](CCC(N)=O)NC(=O)[C@@H](NC(=O)[C@H](Cc1ccccc1)NC(=O)[C@@H](NC(=O)[C@H](C)NC(=O)[C@H](CC(=O)O)NC(=O)[C@@H](C)NC(=O)[C@H](Cc1ccc(O)cc1)NC)[C@@H](C)CC)[C@@H](C)O)C(C)C)[C@@H](C)CC)C(=O)N[C@@H](CC(=O)O)C(=O)N[C@@H](CCCNC(=N)N)C(=O)NC` [Peptide P-27403, [N—Me-Tyr^1, D-Ala^2, Gln^8, Orn^12, Abu^15, Orn^21, Nle^27, Asp^28]hGHRH(1-29)NH—CH3] (H-[NMeY][dA]DAIFTQSYR[Orn]VL[Abu]QLSAR[Orn]LLQDI[Nle]DR-NHMe)?
A: Relative affinity (Binding potency) vs JI-38 [1]: 27.19; Relative affinity (Binding potency) compared to JI-38 ([2]; listed as MR-403): 3.69; GHRH receptor binding affinity (in words) [2]: highest GH-releasing potency and binding affinity; Relative affinity (Binding potency) compared to hGHRH(1-29) [2]: 10.30

Q: How did the “Relative affinity … vs JI-38” value [1] turn out when `CCCC[C@H](NC(=O)[C@@H](NC(=O)[C@H](CC(=O)O)NC(=O)[C@H](CCC(N)=O)NC(=O)[C@H](CC(C)C)NC(=O)[C@H](CC(C)C)NC(=O)[C@H](CCCN)NC(=O)[C@H](CCCNC(=N)N)NC(=O)[C@H](C)NC(=O)[C@H](CO)NC(=O)[C@H](CC(C)C)NC(=O)[C@H](CCC(N)=O)NC(=O)[C@H](CC)NC(=O)[C@H](CC(C)C)NC(=O)[C@@H](NC(=O)[C@H](CCCN)NC(=O)[C@H](CCCNC(=N)N)NC(=O)[C@H](Cc1ccc(O)cc1)NC(=O)[C@H](CO)NC(=O)[C@H](CCC(N)=O)NC(=O)[C@@H](NC(=O)[C@H](Cc1c(F)c(F)c(F)c(F)c1F)NC(=O)[C@@H](NC(=O)[C@H](C)NC(=O)[C@H](CC(=O)O)NC(=O)[C@@H](C)NC(=O)[C@H](Cc1ccc(O)cc1)NC)[C@@H](C)CC)[C@@H](C)O)C(C)C)[C@@H](C)CC)C(=O)N[C@@H](CC(=O)O)C(=O)N[C@@H](CCCNC(=N)N)C(=O)NC` [Peptide P-27404, [N—Me-Tyr^1, D-Ala^2, Fpa5^6, Orn^12, Abu^15, Orn^21, Nle^27, Asp^28]hGHRH (1-29)NH—CH3] (H-[NMeY][dA]DAI[Phe(F5)]TQSYR[Orn]VL[Abu]QLSAR[Orn]LLQDI[Nle]DR-NHMe) was run?
A: Its value is 5.00.

Q: What about the “Relative affinity … to JI-38” value [2] of the same compound?
A: The value was 2.45.

Q: And the “Relative affinity … to hGHRH(1-29)” value [2]?
A: Its value is 6.83.
